# Data from PubChem BioAssay AID1963848 (Molecular Pharmacology Branch, DTP, NCI, 2024).
# pIC50: −log10 of the molar value.
# System: 379773-124-R-J2-PDC spheroid viability
# Experiment: Anticancer human tumor 379773-124-R-J2-PDC patient-derived endometrial carcinoma cell line growth inhibition [POLQ]
# Conditions: spheroids with HUVEC and MSC; for pIC50: curve of first compound; for viability, T/C: stronger effect = lower value
# Outline: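 Complex spheroid viability model combining PDC tumour cells with endothelial (HUVEC) and MSC stromal cells. Novobiocin, ART-558 or RP6685 were tested singly and in combination with standard and investigational anticancer drugs. Each was titrated in half-log steps from near clinical Cmax, or from 10 microM where Cmax was unknown.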
# 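Note: spheroids exposed to drugs for seven days before readout.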
# 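Throughout, for viability, T/C: percent viability relative to DMSO vehicle control taken as 100%.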
structure (smiles),measurement,setting,value
CC(=O)O[C@H]1C(=O)[C@@]2(C)[C@H]([C@H](OC(=O)c3ccccc3)[C@]3(O)C[C@H](OC(=O)[C@H](O)[C@@H](NC(=O)c4ccccc4)c4ccccc4)C(C)=C1C3(C)C)[C@]1(OC(C)=O)CO[C@@H]1C[C@@H]2O + COC1C(OC(N)=O)C(O)C(Oc2ccc3c(O)c(NC(=O)c4ccc(O)c(CC=C(C)C)c4)c(=O)oc3c2C)OC1(C)C,pIC50,second compound 0.0316 µM,> 8.02
same,pIC50,second compound 0.1 µM,> 8.02
same,pIC50,second compound 0.316 µM,> 8.02
same,pIC50,second compound 1 µM,> 8.02
same,pIC50,second compound 3.16 µM,> 8.02
same,pIC50,second compound 10 µM,> 8.02
same,"viability, T/C","second compound 0.0316 µM, first compound 0.00949 µM",19.1%
same,"viability, T/C","second compound 0.0316 µM, first compound 0.03 µM",6.48%
same,"viability, T/C","second compound 0.0316 µM, first compound 0.0949 µM",7.9%
same,"viability, T/C","second compound 0.0316 µM, first compound 0.3 µM",9.31%
same,"viability, T/C","second compound 0.0316 µM, first compound 0.949 µM",7.71%
same,"viability, T/C","second compound 0.0316 µM, first compound 3 µM",5.65%
same,"viability, T/C","second compound 0.1 µM, first compound 0.00949 µM",23.8%
same,"viability, T/C","second compound 0.1 µM, first compound 0.03 µM",7.55%
same,"viability, T/C","second compound 0.1 µM, first compound 0.0949 µM",8.46%
same,"viability, T/C","second compound 0.1 µM, first compound 0.3 µM",7.94%
same,"viability, T/C","second compound 0.1 µM, first compound 0.949 µM",6.43%
same,"viability, T/C","second compound 0.1 µM, first compound 3 µM",6.33%
same,"viability, T/C","second compound 0.316 µM, first compound 0.00949 µM",18.3%
same,"viability, T/C","second compound 0.316 µM, first compound 0.03 µM",8.15%
same,"viability, T/C","second compound 0.316 µM, first compound 0.0949 µM",8.46%
same,"viability, T/C","second compound 0.316 µM, first compound 0.3 µM",9.54%
same,"viability, T/C","second compound 0.316 µM, first compound 0.949 µM",7.17%
same,"viability, T/C","second compound 0.316 µM, first compound 3 µM",6.23%
same,"viability, T/C","second compound 1 µM, first compound 0.00949 µM",24.1%
same,"viability, T/C","second compound 1 µM, first compound 0.03 µM",9.6%
same,"viability, T/C","second compound 1 µM, first compound 0.0949 µM",8.23%
same,"viability, T/C","second compound 1 µM, first compound 0.3 µM",7.23%
same,"viability, T/C","second compound 1 µM, first compound 0.949 µM",8.2%
same,"viability, T/C","second compound 1 µM, first compound 3 µM",6.6%
same,"viability, T/C","second compound 3.16 µM, first compound 0.00949 µM",22%
same,"viability, T/C","second compound 3.16 µM, first compound 0.03 µM",8.1%
same,"viability, T/C","second compound 3.16 µM, first compound 0.0949 µM",9.73%
same,"viability, T/C","second compound 3.16 µM, first compound 0.3 µM",8.26%
same,"viability, T/C","second compound 3.16 µM, first compound 0.949 µM",6.92%
same,"viability, T/C","second compound 3.16 µM, first compound 3 µM",6.09%
same,"viability, T/C","second compound 10 µM, first compound 0.00949 µM",18.3%
same,"viability, T/C","second compound 10 µM, first compound 0.03 µM",7.78%
same,"viability, T/C","second compound 10 µM, first compound 0.0949 µM",7.88%
same,"viability, T/C","second compound 10 µM, first compound 0.3 µM",7.81%
same,"viability, T/C","second compound 10 µM, first compound 0.949 µM",6.9%
same,"viability, T/C","second compound 10 µM, first compound 3 µM",8.24%
COc1cccc2c1C(=O)c1c(O)c3c(c(O)c1C2=O)CC(O)(C(=O)CO)CC3OC1CC(N)C(O)C(C)O1 (centres undefined) + COC1C(OC(N)=O)C(O)C(Oc2ccc3c(O)c(NC(=O)c4ccc(O)c(CC=C(C)C)c4)c(=O)oc3c2C)OC1(C)C,pIC50,second compound 0.0316 µM,7.25
same,pIC50,second compound 0.1 µM,7.19
same,pIC50,second compound 0.316 µM,7.18
same,pIC50,second compound 1 µM,7.21
same,pIC50,second compound 3.16 µM,7.25
same,pIC50,second compound 10 µM,7.23
same,"viability, T/C","second compound 0.0316 µM, first compound 0.0316 µM",77.5%
same,"viability, T/C","second compound 0.0316 µM, first compound 0.1 µM",23.3%
same,"viability, T/C","second compound 0.0316 µM, first compound 0.316 µM",6.61%
same,"viability, T/C","second compound 0.0316 µM, first compound 1 µM",6.45%
same,"viability, T/C","second compound 0.0316 µM, first compound 3.16 µM",0.84%
same,"viability, T/C","second compound 0.0316 µM, first compound 10 µM",0.73%
same,"viability, T/C","second compound 0.1 µM, first compound 0.0316 µM",85.7%
same,"viability, T/C","second compound 0.1 µM, first compound 0.1 µM",27.9%
same,"viability, T/C","second compound 0.1 µM, first compound 0.316 µM",6.63%
same,"viability, T/C","second compound 0.1 µM, first compound 1 µM",6.52%
same,"viability, T/C","second compound 0.1 µM, first compound 3.16 µM",1%
same,"viability, T/C","second compound 0.1 µM, first compound 10 µM",0.1%
same,"viability, T/C","second compound 0.316 µM, first compound 0.0316 µM",83.4%
same,"viability, T/C","second compound 0.316 µM, first compound 0.1 µM",31.3%
same,"viability, T/C","second compound 0.316 µM, first compound 0.316 µM",8.56%
same,"viability, T/C","second compound 0.316 µM, first compound 1 µM",7.02%
same,"viability, T/C","second compound 0.316 µM, first compound 3.16 µM",1.52%
same,"viability, T/C","second compound 0.316 µM, first compound 10 µM",1.06%
same,"viability, T/C","second compound 1 µM, first compound 0.0316 µM",82.8%
same,"viability, T/C","second compound 1 µM, first compound 0.1 µM",26.2%
same,"viability, T/C","second compound 1 µM, first compound 0.316 µM",8.01%
same,"viability, T/C","second compound 1 µM, first compound 1 µM",5.55%
same,"viability, T/C","second compound 1 µM, first compound 3.16 µM",1.26%
same,"viability, T/C","second compound 1 µM, first compound 10 µM",0.1%
same,"viability, T/C","second compound 3.16 µM, first compound 0.0316 µM",75.7%
same,"viability, T/C","second compound 3.16 µM, first compound 0.1 µM",23.2%
same,"viability, T/C","second compound 3.16 µM, first compound 0.316 µM",6.39%
same,"viability, T/C","second compound 3.16 µM, first compound 1 µM",6.03%
same,"viability, T/C","second compound 3.16 µM, first compound 3.16 µM",1.65%
same,"viability, T/C","second compound 3.16 µM, first compound 10 µM",0.73%
same,"viability, T/C","second compound 10 µM, first compound 0.0316 µM",84%
same,"viability, T/C","second compound 10 µM, first compound 0.1 µM",19.4%
same,"viability, T/C","second compound 10 µM, first compound 0.316 µM",7.68%
same,"viability, T/C","second compound 10 µM, first compound 1 µM",5.68%
same,"viability, T/C","second compound 10 µM, first compound 3.16 µM",0.98%
same,"viability, T/C","second compound 10 µM, first compound 10 µM",0.19%
